Results taken from publication PMC9008576, “Characterization of Agarolytic Pathway in a Terrestrial Bacterium Cohnella sp. LGH” (Frontiers in Microbiology, 2022).

Key:
[1] = tested on: T1, CL5012; assay: L-AHG release, non-linear regression; format: biochemical, Cohnella sp. LGH; conditions: 10 mM Tris-HCl pH 8.0, 35°C, 10 min, 0.5–7.5 mg/ml substrate
T1 construct: pET29a (NdeI/XhoI), E. coli BL21(DE3) pLysS, Ni-NTA (C-terminal His tag likely); GH117

[2] = biological target: T2, AgWH2A (Agarivorans gilvus, UniProt A0A2Z4WWH8); assay: TLC of products; format: biochemical; conditions: 10 mM potassium phosphate pH 7.5, 30°C, 4 h; positive control enzyme
T2 construct: gene lacZ; pET29a (SalI/XhoI), E. coli BL21(DE3) pLysS, Ni-NTA (vector tags kept)
T2 sequence (A0A2Z4WWH8 1-753): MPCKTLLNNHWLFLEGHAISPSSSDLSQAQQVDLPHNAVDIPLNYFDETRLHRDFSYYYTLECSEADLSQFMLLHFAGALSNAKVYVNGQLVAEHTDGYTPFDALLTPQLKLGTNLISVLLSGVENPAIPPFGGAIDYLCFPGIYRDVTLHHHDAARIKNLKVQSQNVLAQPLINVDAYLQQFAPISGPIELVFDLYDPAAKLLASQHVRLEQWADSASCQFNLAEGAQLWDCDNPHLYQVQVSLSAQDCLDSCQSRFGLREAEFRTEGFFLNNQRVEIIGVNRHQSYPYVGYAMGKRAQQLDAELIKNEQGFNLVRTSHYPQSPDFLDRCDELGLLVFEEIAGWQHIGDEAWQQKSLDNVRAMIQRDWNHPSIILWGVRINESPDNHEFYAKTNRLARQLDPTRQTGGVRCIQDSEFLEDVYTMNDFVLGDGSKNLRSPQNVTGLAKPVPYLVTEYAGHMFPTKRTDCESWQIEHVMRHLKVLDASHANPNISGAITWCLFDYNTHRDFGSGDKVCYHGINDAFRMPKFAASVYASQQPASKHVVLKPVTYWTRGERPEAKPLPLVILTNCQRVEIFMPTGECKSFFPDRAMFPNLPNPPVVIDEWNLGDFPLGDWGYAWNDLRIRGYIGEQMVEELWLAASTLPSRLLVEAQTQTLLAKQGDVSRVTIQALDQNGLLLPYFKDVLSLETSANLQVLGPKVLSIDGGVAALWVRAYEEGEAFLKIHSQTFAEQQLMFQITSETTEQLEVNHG

[3] = tested on: T3, CL4994; assay: agarotriose consumption, non-linear regression; format: biochemical, Cohnella sp. LGH; conditions: 10 mM potassium phosphate pH 7.0, 30°C, 10 min, 0.5–7.5 mg/ml substrate
T3 construct: pET29a (KpnI/XhoI), E. coli BL21(DE3) pLysS, Ni-NTA (vector tags kept); GH2

SMILES | Km [1] [mg ml^–1] | TLC of products [2] | Km [3] [mg ml^–1]
OC[C@H]1OC(O)[C@H](O)[C@@H](O[C@@H]2O[C@H]3CO[C@@H]([C@@H]2O)[C@@H]3O)[C@H]1O (stereo partly drawn) [neoagarobiose] | 4.45 |  | 
OC[C@H]1O[C@@H](O[C@H]2[C@H]3OC[C@@H]2O[C@@H](O[C@H]2[C@@H](O)[C@@H](CO)OC(O)[C@@H]2O)[C@H]3O)[C@H](O)[C@@H](O)[C@H]1O (stereo partly drawn) [agarotriose] |  | depolymerization products of agarotriose by the reported ABG AgWH2A | 3.90
